Legend:
[1] = molecular target: GST-tagged KRAS (amino acids 1-188) G12D binding to His-tagged SOS1 (Homo sapiens (Human), UniProt P01116, G12D); test: KRAS G12D:SOS1 GDP TR-FRET assay; conditions: GDP 10 μM; KRAS G12D 37.5 nM; SOS1 18 nM
Protocol: (§1) KRAS: SOS1 GDP TR-FRET Assay
(§2) This assay was used to identify compounds which competitively interact with the binding of KRAS protein to SOS1 in the presence of GDP. GST-tagged WT KRAS (amino acids 1-188), GST-tagged KRAS (amino acids 1-188) G12D and His- tagged SOS1 protein (amino acids 564-1049) was expressed in E. coli and purified. All protein and reaction solutions were prepared in assay buffer containing DPBS pH7.5, 0.1% BSA, and 0.05% Tween 20. Purified GST-tagged WT KRAS or KRAS G12D protein (37.5 nM final assay concentration) and GDP (Sigma, 10 μM final assay concentration) mixture, a serially diluted compound (top final concentration is 50 uM or 10 uM, 3-fold serially diluted, 10 points) and His-tagged SOS1 protein (18 nM final assay concentration) were added into the assay plates (384 well microplate, black, Corning) sequentially. Plates are incubated at 24° C. for 1 hr. Following the incubation, Mab Anti-6His-Tb cryptate (Cisbio) and Mab Anti GST-D2 (Cisbio) were added and further incubated at 24° C. for another 1 hr. The TR-FRET signals (ex337nm, em665nm/620nm) were read on BMG PHERAstar FSX instrument. The inhibition percentage of KRAS protein binding with SOS1 in presence of increasing concentrations of compounds was calculated based on the ratio of fluorescence at 665 nm to that at 620 nm. The IC50 value of each compound was calculated from fitting the data to the four-parameter logistic model by Dotmatics.

[2] = molecular target: GST-tagged WT KRAS (amino acids 1-188) binding to His-tagged SOS1 (Homo sapiens (Human), UniProt P01116); test: KRAS WT:SOS1 GDP TR-FRET assay; conditions: GDP 10 μM; WT KRAS 37.5 nM; SOS1 18 nM
Protocol: as §1, §2

[3] = test system: pERK1/2(THR202/TYR204) level in AsPC-1 cells; test: pERK assay (HTRF) in AsPC-1 cells; format: cell-based; conditions: Homo sapiens, ASPC1, 2 h compound treatment
Protocol: AsPC-1 cell line was used in this study. Cells were maintained in RPMI-1640 supplemented with 10% fetal bovine serum (Thermo Fisher), 50 units/mL penicillin and streptomycin (Thermo Fisher) and kept at 37° C. in a humidified atmosphere of 5% CO2 in air. Cells were reinstated from frozen stocks that were laid down within 30 passages from the original cells purchased. 30000 cells per well were seeded into a 96-well plate and incubated overnight. Cells were treated with a 10-point dilution series. The final compound concentration is from 0 to 10 μM. After 2 h compound treatment, cells were lysed, and the pERK1/2(THR202/TYR204) level in the cell lysates was detected by HTRF kit (Cisbio). In brief, a total of 16 μl of cell lysate from each well of a 96-well plate was transferred to a 384-well white assay plate. Lysate from each well was incubated with 2 μL of Eu3+- cryptate (donor) labeled anti-phospho-ERK1/2 and 2 μL of D2 (acceptor) labeled anti-phospho-ERK1/2 antibodies (Cisbio) overnight in dark at room temperature. When donor and acceptor are in close proximity, excitation of the donor with laser triggers a Fluorescence Resonance Energy Transfer (FRET) towards the acceptor, which in turn fluoresces at 655 nm wavelength. FRET signals were measured using a PHERAstar FSX reader (BMG Labtech). IC50 determination was performed by fitting the curve of percent inhibition versus the log of the inhibitor concentration using Dotmatics.

[4] = molecular target: KRAS G12D HiBiT in HEK293 KRAS-G12D NanoLuc cell pool (Homo sapiens (Human), UniProt P01116, G12D); test: KRAS G12D NanoLuc assay; format: cell-based; conditions: 24 h compound treatment
Protocol: HEK293 KRAS-G12D NanoLuc cell pool was used in this study. The cells were stable expressing KRAS G12D HiBiT and LgBiT. Cells were maintained in DMEM supplemented with 10% fetal bovine serum (Thermo Fisher), 50 units/mL penicillin and streptomycin (Thermo Fisher) and kept at 37° C. in a humidified atmosphere of 5% CO2 in air. Cells were reinstated from frozen stocks that were laid down within 30 passages from the cell pool was constructed. 20000 cells per well were seeded a 96-well White with Clear Flat bottom plate for 4 h. Cells were treated with a 10-point dilution series. The final compound concentration is from 0 to 10 μM. After 24 h compound treatment, added 20 μL of CellTiter-Fluor reagent (Promega) to plates, shook for 2 min, incubated at least 30 min in 37° C. Added 25 μL of NanoGlo Live cell reagent (Promega) to the same plate. shook by mini-shaker for 5 min. Measure Luminescence and Fluorescence (380-400nmEx/505nmEm) signals immediately using a PHERAstar FSX reader (BMG Labtech). DC50 determination was performed by fitting the curve of percent inhibition versus the log of the inhibitor concentration using Excel and GraphPad Prism 8.

[5] = molecular target: KRAS G12D protein level in AsPC-1 cells (Homo sapiens (Human), UniProt P01116, G12D); test: Western blotting assay in AsPC-1 cells; format: cell-based; conditions: 3 uM, 48 h compound treatment, Western blot
Protocol: AsPC-1 cell line was used in this study. Cells were maintained in RPMI-1640 supplemented 10% fetal bovine serum (Thermo Fisher), 50 units/mL penicillin and streptomycin (Thermo Fisher) and kept at 37° C. In a humidified atmosphere of 5% CO2 in air. Cells were reinstated from frozen stocks that were laid down within 30 passages from the original cells purchased. 400000 AsPC-1 cells per well in 1 mL culture medium were seed in the 12-well plate for 4 hours. Cells were treated with an appropriate dilution series of compounds. After 48h compound treatment, medium was aspirated, the cells were washed with PBS, and then 30 μL of 1× protein lysis buffer (Cell Signaling Technology) containing protease inhibitors (Merck) and phosphatase inhibitors (Sigma) was added. The cells were lysed, and after centrifugation, the supernatants were quantified by BCA Protein assay Kit (Thermo Fisher). 4× loading Buffer (Thermo Fisher) was added to equal amounts of total protein from each sample and heated at 95° C. for 5 minutes. […]

In the case of CN1C[C@H](F)C[C@H]1COc1nc2c(c(N3CC4CCC(C3)N4)n1)CCN(c1cccc3cccc(Cl)c13)C2 [Example 15, 4-(3,8-diazabicyclo[3.2.1]octan-3-yl)-7-(8-chloronaphthalen-1-yl)-2-(((2S,4R)-4-fluoro-1-methylpyrrolidin-2-yl)methoxy)-5,6,7,8-tetrahydropyrido[3,4-d]pyrimidine], the IC50 [1] is reported as 41 nM, the IC50 [2] is reported as > 10 µM and the IC50 [3] is reported as 4.03 µM.

Cc1ncsc1-c1ccc([C@H](C)NC(=O)[C@@H]2C[C@@H](O)CN2C(=O)[C@@H](NC(=O)CCCCCCN2CCC[C@H]2COc2nc3c(c(N4CC5CCC(C4)N5)n2)CCN(c2cccc4cccc(Cl)c24)C3)C(C)(C)C)cc1 [Example 16] showed a DC50 [4] of 1000 nM and a Dmax [4] of 73%.

With Cc1ncsc1-c1ccc([C@H](C)NC(=O)[C@@H]2C[C@@H](O)CN2C(=O)[C@@H](NC(=O)CCOCCCN2CCC[C@H]2COc2nc3c(c(N4CC5CCC(C4)N5)n2)CCN(c2cccc4cccc(Cl)c24)C3)C(C)(C)C)cc1 [Example 17] the DC50 [4] was 708 nM, the Dmax [4] was 80% and the “KRAS G12D protein level decrease” value [5] was 40%.

CN1CCC[C@H]1COc1nc2c(c(N3CC4CCC(C3)N4)n1)CCN(c1cccc3cccc(Cl)c13)C2 [Example 7, 4-(3,8-diazabicyclo[3.2.1]octan-3-yl)-7-(8-chloronaphthalen-1-yl)-2-(((S)-1-methylpyrrolidin-2-yl)methoxy)-5,6,7,8-tetrahydropyrido[3,4-d]pyrimidine] gave an IC50 [1] of 59 nM, an IC50 [2] of 17.2 µM and an IC50 [3] of 6.75 µM.

With CN1CCC[C@H]1COc1nc2c(c(N3CC4CCC(C3)N4)n1)CCN(c1cccc3ccc(F)c(Cl)c13)C2 [Example 11] the IC50 [1] was 12 nM, the IC50 [2] was 3.62 µM and the IC50 [3] was 4.64 µM.

CN1CCC[C@H]1COc1nc2c(c(N3CC4CCC(C3)N4)n1)CCN(c1cccc3ccc(Cl)c(Cl)c13)C2 [Example 9] was tested, and the IC50 [1] was 63 nM, the IC50 [2] was > 10 µM and the IC50 [3] was 9.93 µM.

Reference: US20240092803A1, “BRIDGED COMPOUNDS AS KRAS G12D INHIBITOR AND DEGRADER AND THE USE THEREOF” (BEIGENE SWITZERLAND GMBH, priority 2021, published 2024)
